Results taken from ChEMBL document CHEMBL1122733, “Synthesis and beta-adrenergic blocking activity of new aliphatic and alicyclic oxime ethers” (J Med Chem, 1984).

Test: Compound was evaluated for pKa value by potentiometric titration
Format: physicochemical

## C/C(=N/OCC(O)CNC(C)(C)C)C1CC1 (stereo unspecified)
  pKa: 9.45

## CC(C)OCC(O)CNC(C)(C)C (stereo unspecified)
  pKa: 9.9

## CC(C)=NOCC(O)CNC(C)(C)C (stereo unspecified)
  pKa: 9.42

## CC1C/C(=N/OCC(O)CNC(C)(C)C)CC(C)(C)C1 (stereo unspecified)
  pKa: 9.41

## C=CC(C)(C)OCC(O)CNC(C)(C)C (stereo unspecified)
  pKa: 9.67

## CC1CC(OCC(O)CNC(C)(C)C)CC(C)(C)C1 (stereo unspecified)
  pKa: 9.94

## CC(C)COCC(O)CNC(C)(C)C (stereo unspecified)
  pKa: 9.73

## C/C(CC1CC1)=N/OCC(O)CNC(C)(C)C (stereo unspecified)
  pKa: 9.57

## CC(C)(C)COCC(O)CNC(C)(C)C (stereo unspecified)
  pKa: 9.68

## CC(NOCC(O)CNC(C)(C)C)C1CC1 (stereo unspecified)
  pKa: 9.1

## C/C(=N/OCC(O)CNC(C)(C)C)C(C)C (stereo unspecified)
  pKa: 9.27

## CC(C)(C)NCC(O)COCC1CC1 (stereo unspecified)
  pKa: 9.73

## CC(C)(C)NCC(O)COC(C1CC1)C1CC1 (stereo unspecified)
  pKa: 9.63

## CC(OCC(O)CNC(C)(C)C)C1CC1 (stereo unspecified)
  pKa: 9.76

## CC(C)(C)NCC(O)CON=C(C1CC1)C1CC1 (stereo unspecified)
  pKa: 9.64

## CC(C)(C)NCC(O)CO/N=C\C1CC1 (stereo unspecified)
  pKa: 9.64
